Assay results as given in patent US12458614B2, “Therapeutic agents for improved mobility and cognitive function and for treating neurodegenerative diseases and lysosomal storage disorders” (priority 2017, dated 2025).

How the values were obtained:
[1] = system: Mucopolysaccharidosis Type VII (MPS VII) patient fibroblasts; assay: Lysosomal volume via LysoTracker; assay type: cell-based, human; settings: 1 mM, 6 days
[2] = system: patients with multisystemic atrophy cerebellar type (MSA-C); assay: Case studies, multisystemic atrophy cerebellar type; assay type: in vivo, human
[3] = system: patient with frontotemporal dementia with parkinsonism; assay: Case study, frontotemporal dementia with parkinsonism; assay type: in vivo, human
Excerpt: After approximately one month of acetyl-leucine treatment, medication was stopped and the patient was re-examined 13 days later.

[4] = system: patients with multiple system atrophy Parkinson type (MSA-P); assay: Case studies, multiple system atrophy Parkinson type; assay type: in vivo, human; settings: MSA-P Patient 3, after one month
Excerpt: Medication was stopped. […] The patient evaluated after one month on acetyl-DL-leucine. […] Episodes of mental confusion completely disappeared. The patient's cognitive structure seemed much clearer and straighter. […] The patient's spouse supported continuing the medication.

[5] = system: patients with cerebellar ataxia; settings: cited from earlier work
[6] = system: patients with ataxia telangiectasia; assay: Case studies, ataxia telangiectasia (SARA, SCAFI, video-oculography); assay type: in vivo, human
Excerpt: For example, to evaluate overall neurological status, mDRS, a four-domain scale (ambulation, manipulation, language and swallowing), may be applied. Cerebellar function may be evaluated using SARA, an eight-item clinical rating scale (gait, stance, sitting, speech, fine motor function and taxis; range 0-40, where 0 is the best neurological status and 40 the worst), and SCAFI, comprising the 8-m-Walking-Time (8MW; performed by having patients walking twice as quickly as possible from one line to another excluding turning), 9-Hole-Peg-Test (9HPT) and the number of “PATA” repetitions over 10 s. Subjective impairment and quality of life may be evaluated using the EQ-5D-5L questionnaire and VAS. To assess ocular motor function, 3-dimensional videooculography (EyeSeeCam) may be used to measure the peak velocity of saccades, gain of smooth pursuit, peak slow phase velocity of gaze-evoked nystagmus (gaze-holding function), peak slow phase velocity of optokinetic nystagmus, and gain of horizontal vestibulo-ocular reflex. To evaluate the cognitive state, WAIS-R or WISC-IV, and MoCA, assessing different cognitive domains, including attention and concentration, executive functions, memory, language, visuoconstructional skills, conceptual thinking, calculations, and orientation with a maximum of 30 points and a cut-off score of 26, may be used. The skilled person will know how to perform these and other such tests.
After one month of treatment, the patient was re-evaluated. […] Examination indicated a Scale for Assessment and Rating of Ataxia (SARA) score of 15.5/40. Results from the patient's Spinocerebellar Ataxia Functional Index (SCAFI) analysis were: • Mean 8-meters Walking Test (8MW): 18.5 s • MW 9-Hole Pegboard Test Dominant (9HPTD) (right): 77.9 s • MW 9-Hole Pegboard Test Non-Dominant (9HPTND): 101.3 s • MW PATA Word Test: 13 • Visual analog scale (as evaluated by the patient): 85
After one month of treatment, the patient was re-evaluated. […] Examination indicated a Scale for Assessment and Rating of Ataxia (SARA) score of 23.5/40.
After slightly over 7 months of treatment, the patient was re-evaluated. […] Examination indicated a Scale for Assessment and Rating of Ataxia (SARA) score of 21.5/40.
After slightly over 1 month of treatment, the patient was re-evaluated. […] The patient also reported that drinking was easier and no longer needed a straw. […] Examination indicated a Scale for Assessment and Rating of Ataxia (SARA) score of 18.5/40.
After about 1 month of treatment, the patient was re-evaluated. […] On medication, they were able to walk with only holding the caregiver's hand.
The patient was evaluated after one month and six months of treatment, respectively. […] The patient, however, was suffering from anxiety, which would be expected to negatively influence the response.

[7] = system: Tay-Sachs disease patient fibroblasts; assay: Glycosphingolipid (GSL) levels via HPLC; assay type: cell-based, human; settings: 1 mM for 6 days, p<0.05
[8] = A-T Patient 3, after slightly over 7 months
[9] = A-T Patient 4, after slightly over 1 month
[10] = A-T Patient 5, after about 1 month
[11] = A-T Patient 5, after almost 7 months

CC(=O)NC(CC(C)C)C(=O)O (racemic) [acetyl-DL-leucine]
LysoTracker fluorescence vs untreated disease fibroblasts [1]: trend in reducing LysoTracker fluorescence toward control level
Speech ([2]; MSA-C Patient 1, after one week, 5 g per day): significant improvement in speech
Dizziness ([2]; MSA-C Patient 2, after 3 weeks): substantially improved
Falls ([2]; MSA-C Patient 2, after 3 weeks): falls completely stopped
Gait ([2]; MSA-C Patient 2, after 3 weeks): significant improvement of gait
Symptoms after stopping medication ([2]; MSA-C Patient 2, one week after first stop): deterioration of gait and dizziness
Symptoms after stopping medication ([2]; MSA-C Patient 2, two days after second stop): progressive deterioration of gait and dizziness
Symptomatology after return to treatment ([2]; MSA-C Patient 3): symptomatology re-improved
Gait analysis (summary) ([2]; MSA-C Patient 3, after one month): improvement of gait speed, and reductions of track width and gait fluctuations
Symptoms after re-suspension ([2]; MSA-C Patient 3, three weeks after treatment was again suspended): deterioration of symptoms, especially dizziness
Symptoms after stopping medication ([2]; MSA-C Patient 3, two to three weeks after stopping): progressive deterioration of gait and dizziness
Symptoms after suspension of treatment ([3]; re-examined 13 days after stop): symptoms worsened
Falls ([3]; under therapy): falls stopped
Speech ([3]; under therapy): improvement of speech
Gait ([3]; under therapy, 3 then 5 gram per day, about one month): significant improvement of gait
Cognitive function (reported by wife) [4]: significant improvement of cognitive function
Gait function [4]: no improvement of gait function
benefit in degenerative cerebellar ataxia ([5]; case series (Pelz 2015)): did not find benefit
symptoms of cerebellar ataxia ([5]; case series (Strupp 2013)): symptomatic improvement of cerebellar ataxia
temporal gait variability ([5]; quantitative gait analysis (Schniepp 2015)): improved temporal gait variability
Video-oculography (summary) ([6]; A-T Patient 1, after one month): significant improvement of fixation stability and decrease of intensity of downbeat-nystagmus
Caregiver report ([6]; A-T Patient 1, after one month, 5 g/day): improvement of speech and gait
9-Hole Pegboard Test Dominant (9HPTD) ([6]; A-T Patient 2, after one month): 300 s
Mean 8-meters Walking Test (8MW) ([6]; A-T Patient 2, after one month): not able to perform without support
Video-oculography (summary) ([6]; A-T Patient 2, after one month): improvement of fixation stability and significant improvement of downbeat-nystagmus intensity
Caregiver report ([6]; A-T Patient 2, after one month, 5 g/day): improvement of fine motor function, hand tremor, and speech
Mean 8-meters Walking Test (8MW) [6, 8]: not able to perform
Video-oculography (summary) [6, 8]: significant improvement of fixation stability and decrease of intensity of gaze-holding nystagmus at all positions
Caregiver and patient report ([6]; A-T Patient 3, after slightly over 7 months, 5 g/day): general improvement of well-being
Mean 8-meters Walking Test (8MW) [6, 9]: not able to perform
Video-oculography (summary) [6, 9]: general improvement of fixation stability and decrease of intensity of spontaneous and gaze-holding nystagmus at all positions
Patient and family report ([6]; A-T Patient 4, after slightly over 1 month, 5 g/day): improvement in handwriting
Body weight gained [6, 10]: 1.5 kg
Mean 8-meters Walking Test (8MW) [6, 10]: not able to walk without support
Gait (reported by parent) ([6]; A-T Patient 5, after about 1 month, 5 g/day): significant improvement of stability of the gait
Further body weight gained [6, 11]: 3 kg
Gait (reported by parent) [6, 11]: significantly more stable gait
Clinical re-evaluation ([6]; A-T Patient 5, after slightly over a year): improved social interaction, activity, and agility
Adverse observation ([6]; A-T Patient 5, after slightly over a year, suspected infantile migraine): repeatedly occurring frontal localized pain with vomiting in the morning
Clinical evaluation ([6]; A-T Patient 6, after one month, 1.5 g/day then 3 g/day): increased fine motor skills with reduced hand tremor
Clinical evaluation ([6]; A-T Patient 6, after six months): stable general conditions, stable gait and stance, and improved handwriting
GSL storage [7]: decrease was statistically significant
